From ChEMBL document CHEMBL1153897, “Small molecules with potent osteogenic-inducing activity in osteoblast cells” (Bioorg Med Chem Lett, 2009)
Active and inactive are the calls of the source. The rule behind the calls is not given here.

Legend:
[1] = Cytotoxicity against mouse MC3T3-E1 cells assessed as increase in apoptosis treated for 3 hrs measured after 22 hrs by caspase 3 colorimetric assay; assay type: cell-based
MC3T3-E1 [2] = assay: Inhibition of staurosporine-induced apoptosis in mouse MC3T3-E1 cells by caspase 3 colorimetric assay; assay type: functional, cell-based
[3] = Antiproliferative activity against mouse MC3T3-E1 cells after 24 hrs by BrdU incorporation assay; assay type: cell-based; conditions: mc3t3-e1, 24 h
MC3T3-E1 [4] = assay: Induction of osteogenesis in mouse MC3T3-E1 cells assessed as osteocalcin secretion at 25 uM after 3 weeks; assay type: functional, cell-based; conditions: MC3T3-E1, 504 h
[5] = Cytotoxicity against mouse MC3T3-E1 cells after 4 hrs by fluorescent Alamar blue assay; assay type: cell-based; conditions: mc3t3-e1, 4 h
MC3T3-E1 [6] = assay: Induction of osteogenesis in mouse MC3T3-E1 cells assessed as alkaline phosphatase secretion at 25 uM after 3 weeks by ELISA; assay type: functional, cell-based; conditions: MC3T3-E1, 504 h
MC3T3-E1 [7] = assay: Induction of osteogenesis in mouse MC3T3-E1 cells assessed as calcium level at 25 uM after 3 weeks; assay type: functional, cell-based; conditions: MC3T3-E1, 504 h

EC50 (MC3T3-E1 [4]) [nM]	EC50 (MC3T3-E1 [6]) [nM]	EC50 (MC3T3-E1 [7]) [nM]	Structure (SMILES)	Activity [1]	Activity (MC3T3-E1 [2])	Activity [3]	Activity [5]
–	–	–	CN[C@@H]1C[C@H]2O[C@@](C)([C@@H]1OC)n1c3ccccc3c3c4c(c5c6ccccc6n2c5c31)C(=O)NC4 [STAUROSPORINE]	Non-toxic	–	–	–
30	90	50	COc1cc2nccc(Oc3ccc4c(C(=O)Nc5ccc(C)cc5)cccc4c3)c2cc1OC	–	inactive	Dose-dependent effect	Non-toxic
100	120	150	COc1cc2nccc(Oc3ccc4c(NC(=O)c5ccc(C)cc5)cccc4c3)c2cc1OC	–	–	–	–
